The source of these data is ChEMBL document CHEMBL1127639, “Structural features important for sigma 1 receptor binding” (J Med Chem, 1994).

The nature of the experiment: Binding affinity against [3H]-3-PPP labelled sigma sites.

The Ki is the equilibrium dissociation constant of an inhibitor or competing ligand from its target. A lower Ki goes with tighter binding. Regarding `CN(CCc1ccccc1)CCN1CCCC1`, the Ki came out at 7.4 nM.
